The source made the active and inactive calls. The rule behind the calls is not given here.
Test system: CCRIS mutagenicity, Ames/micronucleus/aberration tests
Experiment: CCRIS mutagenicity studies
[1] = Test System: AMES SALMONELLA TYPHIMURIUM, Strain/Indicator: TA98, Metabolic Activation: HAMSTER, LIVER, S-9, AROCLOR 1254 (10%), Method: PREINCUBATION
[2] = Test System: AMES SALMONELLA TYPHIMURIUM, Strain/Indicator: TA98, Metabolic Activation: NONE, Method: PREINCUBATION
[3] = Test System: AMES SALMONELLA TYPHIMURIUM, Strain/Indicator: TA98, Metabolic Activation: RAT, LIVER, S-9, AROCLOR 1254 (10%), Method: PREINCUBATION
[4] = Test System: AMES SALMONELLA TYPHIMURIUM, Strain/Indicator: TA100, Metabolic Activation: HAMSTER, LIVER, S-9, AROCLOR 1254 (10%), Method: PREINCUBATION
[5] = Test System: AMES SALMONELLA TYPHIMURIUM, Strain/Indicator: TA100, Metabolic Activation: NONE, Method: PREINCUBATION
[6] = Test System: AMES SALMONELLA TYPHIMURIUM, Strain/Indicator: TA100, Metabolic Activation: RAT, LIVER, S-9, AROCLOR 1254 (10%), Method: PREINCUBATION
[7] = Test System: AMES SALMONELLA TYPHIMURIUM, Strain/Indicator: TA1535, Metabolic Activation: HAMSTER, LIVER, S-9, AROCLOR 1254 (10%), Method: PREINCUBATION
[8] = Test System: AMES SALMONELLA TYPHIMURIUM, Strain/Indicator: TA1535, Metabolic Activation: NONE, Method: PREINCUBATION
[9] = Test System: AMES SALMONELLA TYPHIMURIUM, Strain/Indicator: TA1535, Metabolic Activation: RAT, LIVER, S-9, AROCLOR 1254 (10%), Method: PREINCUBATION
[10] = Test System: AMES SALMONELLA TYPHIMURIUM, Strain/Indicator: TA1537, Metabolic Activation: HAMSTER, LIVER, S-9, AROCLOR 1254 (10%), Method: PREINCUBATION
[11] = Test System: AMES SALMONELLA TYPHIMURIUM, Strain/Indicator: TA1537, Metabolic Activation: NONE, Method: PREINCUBATION
[12] = Test System: AMES SALMONELLA TYPHIMURIUM, Strain/Indicator: TA1537, Metabolic Activation: RAT, LIVER, S-9, AROCLOR 1254 (10%), Method: PREINCUBATION
[13] = Test System: AMES SALMONELLA TYPHIMURIUM, Strain/Indicator: TA98, Metabolic Activation: NONE, Method: STANDARD PLATE
[14] = Test System: AMES SALMONELLA TYPHIMURIUM, Strain/Indicator: TA100, Metabolic Activation: NONE, Method: STANDARD PLATE
[15] = Test System: AMES SALMONELLA TYPHIMURIUM, Strain/Indicator: TA98, Metabolic Activation: RAT, LIVER, S-9, AROCLOR 1254, Method: STANDARD PLATE
[16] = Test System: AMES SALMONELLA TYPHIMURIUM, Strain/Indicator: TA100, Metabolic Activation: RAT, LIVER, S-9, AROCLOR 1254, Method: STANDARD PLATE
[17] = Test System: AMES SALMONELLA TYPHIMURIUM, Strain/Indicator: TA102, Metabolic Activation: NONE, Method: STANDARD PLATE
[18] = Test System: AMES SALMONELLA TYPHIMURIUM, Strain/Indicator: TA102, Metabolic Activation: RAT, LIVER, S-9, AROCLOR 1254, Method: STANDARD PLATE
[19] = Test System: AMES SALMONELLA TYPHIMURIUM, Strain/Indicator: TA97, Metabolic Activation: NONE, Method: STANDARD PLATE
[20] = Test System: AMES SALMONELLA TYPHIMURIUM, Strain/Indicator: TA97, Metabolic Activation: RAT, LIVER, S-9, AROCLOR 1254, Method: STANDARD PLATE

SMILES: CC(C)CN(CC(C)C)CC(C)C
- mutagenic call [1]: inactive; negative
- mutagenic call [2]: inactive; negative
- mutagenic call [3]: inactive; negative
- mutagenic call [4]: inactive; negative
- mutagenic call [5]: inactive; negative
- mutagenic call [6]: inactive; negative
- mutagenic call [7]: inactive; negative
- mutagenic call [8]: inactive; negative
- mutagenic call [9]: inactive; negative
- mutagenic call [10]: inactive; negative
- mutagenic call [11]: inactive; negative
- mutagenic call [12]: inactive; negative

SMILES: Cc1c(N)nc(C(CC(N)=O)NCC(N)C(N)=O)nc1C(=O)NC(C(=O)NC(C)C(O)C(C)C(=O)NC(C(=O)NCCc1nc(-c2nc(C(=O)O)cs2)cs1)C(C)O)C(OC1OC(CO)C(O)C(O)C1OC1OC(CO)C(O)C(OC(N)=O)C1O)c1cnc[nH]1 (stereo not drawn)
- mutagenic call (Test System: AMES SALMONELLA TYPHIMURIUM, Strain/Indicator: TA102, Metabolic Activation: NONE, Method: PREINCUBATION): inactive; negative

SMILES: CCCCCCCCOC(=O)c1ccccc1C(=O)OCCCCCCCC
- mutagenic call [1]: inactive; negative
- mutagenic call [2]: inactive; negative
- mutagenic call [3]: inactive; negative
- mutagenic call [4]: inactive; negative
- mutagenic call [5]: inactive; negative
- mutagenic call [6]: inactive; negative
- mutagenic call [7]: inactive; negative
- mutagenic call [8]: inactive; negative
- mutagenic call [9]: inactive; negative
- mutagenic call [10]: inactive; negative
- mutagenic call [11]: inactive; negative
- mutagenic call [12]: inactive; negative

SMILES: CCOP(=O)(Oc1ccc([N+](=O)[O-])cc1)c1ccccc1 (stereo not drawn)
- mutagenic call [13]: active; positive
- mutagenic call (Test System: AMES SALMONELLA TYPHIMURIUM, Strain/Indicator: TA98, Metabolic Activation: RAT, LIVER, S-9, Method: STANDARD PLATE): inactive; negative
- mutagenic call [14]: inactive; negative
- mutagenic call (Test System: AMES SALMONELLA TYPHIMURIUM, Strain/Indicator: TA100, Metabolic Activation: RAT, LIVER, S-9, Method: STANDARD PLATE): inactive; negative

SMILES: CC1(C(=O)NCc2ccccc2)CO1 (stereo not drawn)
- mutagenic call (Test System: AMES SALMONELLA TYPHIMURIUM, Strain/Indicator: TA100, Metabolic Activation: MOUSE, LIVER, S-9, AROCLOR 1254, Method: STANDARD PLATE): active; positive
- mutagenic call [14]: active; positive

SMILES: O=[N+]([O-])C1CCCCC1
- mutagenic call (Test System: UDS RAT HEPATOCYTES, Strain/Indicator: THY INCORP, Metabolic Activation: NONE): active; positive

SMILES: O=C(O)CCc1c[nH]c2ccccc12
- mutagenic call [5]: inactive; negative

SMILES: CC(=O)N1CCC[C@H]1C(=O)N(CC(=O)O)N=O
- mutagenic call [13]: inactive; negative
- mutagenic call [15]: inactive; negative
- mutagenic call (Test System: AMES SALMONELLA TYPHIMURIUM, Strain/Indicator: TA100, Metabolic Activation: HOST MEDIATED, Method: STANDARD PLATE): active; positive
- mutagenic call [14]: active; positive
- mutagenic call [16]: active; positive
- mutagenic call [17]: active; positive
- mutagenic call [18]: active; positive
- mutagenic call (Test System: AMES SALMONELLA TYPHIMURIUM, Strain/Indicator: TA1535, Metabolic Activation: NONE, Method: STANDARD PLATE): active; positive
- mutagenic call (Test System: AMES SALMONELLA TYPHIMURIUM, Strain/Indicator: TA1535, Metabolic Activation: RAT, LIVER, S-9, AROCLOR 1254, Method: STANDARD PLATE): active; positive
- mutagenic call (Test System: AMES SALMONELLA TYPHIMURIUM, Strain/Indicator: TA1537, Metabolic Activation: NONE, Method: STANDARD PLATE): inactive; negative
- mutagenic call (Test System: AMES SALMONELLA TYPHIMURIUM, Strain/Indicator: TA1537, Metabolic Activation: RAT, LIVER, S-9, AROCLOR 1254, Method: STANDARD PLATE): inactive; negative
- mutagenic call (Test System: AMES SALMONELLA TYPHIMURIUM, Strain/Indicator: TA1538, Metabolic Activation: NONE, Method: STANDARD PLATE): inactive; negative
- mutagenic call (Test System: AMES SALMONELLA TYPHIMURIUM, Strain/Indicator: TA1538, Metabolic Activation: RAT, LIVER, S-9, AROCLOR 1254, Method: STANDARD PLATE): inactive; negative
- mutagenic call (Test System: CHO/HGPRT, Strain/Indicator: CHO-K1-BH4, Metabolic Activation: NONE): active; positive

SMILES: CC1=C(Cl)C(=O)OC1O (stereo not drawn)
- mutagenic call [14]: active; positive
- mutagenic call (Test System: Ames Salmonella typhimurium, Strain/Indicator: TA100, Metabolic Activation: None, Method: Plate incorporation): active; positive
- mutagenic call (Test System: Ames Salmonella typhimurium, Strain/Indicator: TA104, Metabolic Activation: None, Method: Plate incorporation): active; positive
- mutagenic call (Test System: UDS RAT HEPATOCYTES, Strain/Indicator: THYMIDINE INCORPORATION, Metabolic Activation: NONE, Method: AUTORADIOGRAPHY): active; positive

SMILES: COc1cc2c(CCNC(C)=O)c[nH]c2cc1O
- mutagenic call [19]: inactive; negative
- mutagenic call [20]: inactive; negative
- mutagenic call [13]: inactive; negative
- mutagenic call [15]: inactive; negative
- mutagenic call [14]: inactive; negative
- mutagenic call [16]: inactive; negative

SMILES: Cc1nn(C)c(NC(=O)CNCCCN2CCCCC2C)c1C(=O)c1ccccc1F (stereo not drawn)
- mutagenic call (Test System: AMES SALMONELLA TYPHIMURIUM, Strain/Indicator: TA98, Metabolic Activation: RAT, LIVER, S-9, AROCLOR 1254, Method: PREINCUBATION): active; positive
- mutagenic call [15]: inactive; negative
- mutagenic call (Test System: AMES SALMONELLA TYPHIMURIUM, Strain/Indicator: TA100, Metabolic Activation: RAT, LIVER, S-9, AROCLOR 1254, Method: PREINCUBATION): active; positive
- mutagenic call [16]: inactive; negative

SMILES: CCC(CCC(C)O)COC(=O)CCCCC(=O)O (stereo not drawn)
- mutagenic call [19]: inactive; negative
- mutagenic call [20]: inactive; negative
- mutagenic call (Test System: AMES SALMONELLA TYPHIMURIUM, Strain/Indicator: TA97, Metabolic Activation: RAT, LIVER, S-9, DI(2-ETHYLHEXYL)PHTHALATE, Method: STANDARD PLATE): inactive; negative
- mutagenic call [13]: inactive; negative
- mutagenic call [15]: inactive; negative
- mutagenic call (Test System: AMES SALMONELLA TYPHIMURIUM, Strain/Indicator: TA98, Metabolic Activation: RAT, LIVER, S-9, DI(2-ETHYLHEXYL)PHTHALATE, Method: STANDARD PLATE): inactive; negative
- mutagenic call [14]: inactive; negative
- mutagenic call [16]: inactive; negative
- mutagenic call (Test System: AMES SALMONELLA TYPHIMURIUM, Strain/Indicator: TA100, Metabolic Activation: RAT, LIVER, S-9, DI(2-ETHYLHEXYL)PHTHALATE, Method: STANDARD PLATE): inactive; negative
- mutagenic call [17]: inactive; negative
- mutagenic call [18]: inactive; negative
- mutagenic call (Test System: AMES SALMONELLA TYPHIMURIUM, Strain/Indicator: TA102, Metabolic Activation: RAT, LIVER, S-9, DI(2-ETHYLHEXYL)PHTHALATE, Method: STANDARD PLATE): inactive; negative
